Assay: Signal differences in mammalian cell culture media (DMEM) versus physiological buffer (HBSS) with hydrogen peroxide
Format: biochemical
Conditions: 30 minutes
Procedure: A 100 μl sample of 4 mg/ml DMSO solution of PBI 4458 was diluted to 500 μl with HBSS buffer (Invitrogen 14025-092), and 50 μl added to wells A1-A9 of a fresh microtiter plate (“DISP”). 100 μl 4 mg/ml DMSO solution of PBI 4472 was diluted to 500 μl with HBSS, and 50 μl added to wells E1-E9. 90 μl HBSS was added to wells A1-B9 of two new microtiter plates labeled “RT” and “37C”. 90 μl DMEM was added to wells C1-D9 of both plates.
A sample of 30% hydrogen peroxide (Sigma H1009-5 ml) was diluted to 1 mM with Nanopure water, and 7.5 μl 1 mM hydrogen peroxide diluted to 1.5 ml with HBSS, and 90 μl added to wells A4-B6 of plates RT and 37° C. 15 μl 1 mM hydrogen peroxide was diluted to […] with HBSS, and 90 μl added to wells A7-B9 of both plates. 90 μl of HBSS was added to wells A1-B3, and 90 μl of DMEM added to wells C1-D3 of both plates. 7.5 μl 1 mM hydrogen peroxide was diluted to 1.5 ml with DMEM, and 90 μl added to wells C4-D6 of both plates. 15 μl 1 mM hydrogen peroxide was diluted to 1.5 ml with DMEM and 90 μl added to wells C7-D9 of both plates.
10 μl samples of row A of plate “DISP” was transferred to rows A and C of plates RT and 37° C., and 10 μl of row B of plate “DISP” transferred to rows B and D of plates RT and 37° C. The 37° C. plate was incubated at 37° C., 5% CO2, with plate RT incubated at room temperature. Both plates were incubated for 30 minutes.
A conversion solution was made by mixing 7.5 ml of 1 M HEPES, pH 8.0, 7.4 ml Nanopure water and 100 μl 100 mM D cysteine. After mixing, 75 μl was added to all wells of a new luminometer plate.
After incubation, 25 μl from wells A1-D9 of the 37° C. plate was transferred to wells E1-H9 of the new luminometer plate, 25 μl of wells A1-D9 of the RT plate was transferred to wells A1-D9 of new luminometer plate, and the plate incubated at room temperature for 2-3 minutes. A 100 μl sample of LDR (Example 23) was added to wells A1-H9, incubated for 15 minutes at room temperature, and bioluminescence detected on a GloMax® luminometer. After reading, the duplicate wells were averaged, and the averaged values with peroxide addition were compared to those without peroxide (Table 11).

Compound	Averaged Relative Light Unit Values (DMEM, 37 C. plate, 0 uM Per)	Averaged Relative Light Unit Values (DMEM, 37 C. plate, 5 uM Per)	Averaged Relative Light Unit Values (DMEM, 37 C. plate, 10 uM Per)	Averaged Relative Light Unit Values (DMEM, RT plate, 0 uM Per)	Averaged Relative Light Unit Values (DMEM, RT plate, 5 uM Per)	Averaged Relative Light Unit Values (DMEM, RT plate, 10 uM Per)	Averaged Relative Light Unit Values (HBSS, 37 C. plate, 0 uM Per)	Averaged Relative Light Unit Values (HBSS, 37 C. plate, 5 uM Per)	Averaged Relative Light Unit Values (HBSS, 37 C. plate, 10 uM Per)	Averaged Relative Light Unit Values (HBSS, RT plate, 0 uM Per)	Averaged Relative Light Unit Values (HBSS, RT plate, 5 uM Per)	Averaged Relative Light Unit Values (HBSS, RT plate, 10 uM Per)
CC1(C)OB(c2ccc(COc3ccc4nc(C#N)sc4c3)cc2)OC1(C)C [PBI 4472, 6-((4-(4,4,5,5-tetramethyl-1,3,2-dioxaborolan-2-yl)benzyl)oxy)benzo-[d]thiazole-2-carbonitrile]	400,077 Relative Light Unit	3,083,589 Relative Light Unit	5,340,569 Relative Light Unit	921,496 Relative Light Unit	4,304,645 Relative Light Unit	8,071,553 Relative Light Unit	44,007 Relative Light Unit	424,851 Relative Light Unit	715,803 Relative Light Unit	103,738 Relative Light Unit	1,106,195 Relative Light Unit	2,058,421 Relative Light Unit
CC1(C)OB(/C=C/COc2ccc3nc(C#N)sc3c2)OC1(C)C [PBI 4458, (E)-6-((3-(4,4,5,5-tetramethyl-1,3,2-dioxaborolan-2-yl)allyl)oxy)-benzo[d]thiazole-2-carbonitrile]	986,772 Relative Light Unit	5,686,033 Relative Light Unit	12,130,782 Relative Light Unit	2,075,191 Relative Light Unit	8,556,256 Relative Light Unit	16,016,143 Relative Light Unit	434,728 Relative Light Unit	2,791,805 Relative Light Unit	4,912,905 Relative Light Unit	853,268 Relative Light Unit	6,111,214 Relative Light Unit	10,641,411 Relative Light Unit
